Measured values reported in ChEMBL document CHEMBL2384916, “Synthesis and in vitro evaluation of a PDT active BODIPY-NLS conjugate” (Bioorg Med Chem Lett, 2013).

Key:
[1] = Drug uptake in nucleus of human T24 cells at 100 nM after 30 mins by confocal microscopic analysis; type: ADME, cell-based; conditions: t-24, 0.5 h, 0.1 µM
T-24 [2] = experiment: Phototoxicity against human T24 cells assessed as growth inhibition incubated for 4 hrs followed by irradiation for 15 mins measured after 24 hrs by MTT assay; type: functional, cell-based; conditions: T-24, light or radiation study
[3] = Drug uptake in endoplasmic reticulum of human T24 cells at 100 nM after 30 mins by confocal microscopic analysis; type: ADME, cell-based; conditions: t-24, 0.5 h, 0.1 µM
T-24 [4] = experiment: Cytotoxicity against human T24 cells assessed as growth inhibition after 24 hrs by MTT assay in absence of light; type: cell-based; conditions: T-24, 24 h
[5] = Drug uptake in lysosome of human T24 cells at 100 nM after 30 mins by confocal microscopic analysis; type: ADME, cell-based; conditions: t-24, 0.5 h, 0.1 µM

Drug uptake [1]	Drug uptake [3]	Drug uptake [5]	Compound	IC50 (T-24 [2]) [nM]	IC50 (T-24 [4]) [µM]
Not Active	Not Active	Active	CC1=C(I)C(C)=[N+]2C1=C(c1ccc(-c3cn(CC(=O)OC(C)(C)C)nn3)cc1)c1c(C)c(I)c(C)n1[B-]2(F)F	42	> 10
Not Active	Active	Active	CC1=C(I)C(C)=[N+]2C1=C(c1ccc(-c3cn(CC(=O)N4CCC[C@H]4C(=O)N[C@@H](CCCCN)C(=O)N[C@@H](CCCCN)C(=O)N[C@@H](CCCCN)C(=O)N[C@@H](CCCNC(=N)N)C(=O)N[C@@H](CCCCN)C(=O)N[C@H](C(N)=O)C(C)C)nn3)cc1)c1c(C)c(I)c(C)n1[B-]2(F)F	16	> 10
